{"source": "paper PMC2735267", "about": "(Neuropharmacology, 2009)", "key": {"α7* nAChR binding sites": {"test_system": "α7* nAChR binding sites", "format": "in vivo, DBA/2J mice", "conditions": "zona incerta, 3-IC 0.2 mg/kg/h iv 7 days vs saline"}, "[1]": {"test_system": "cytisine-resistant [125I]epibatidine binding sites (mixed population of nAChR)", "conditions": "membranes, any brain region analyzed; 0.2 mg/kg/h iv 7 days"}, "[2]": {"test_system": "A85380-resistant [125I]epibatidine binding sites (mainly α3β4* nAChR)", "conditions": "membranes; 0.2 mg/kg/h iv 7 days"}, "[3]": {"test_system": "cytisine-resistant [125I]epibatidine binding sites", "conditions": "for Cytisine-resistant [125I]epibatidine binding: 3-IC 0.2 mg/kg/h iv 7 days; for Cytisine-resistant [125I]epibatidine binding % change: 3-IC 0.2 mg/kg/h iv 7 days vs saline"}, "α7* receptors": {"molecular_target": "α7* receptors", "conditions": "read-out: Ki α7* receptors in rat brain; ref Abin-Carriquiry et al., 2006; cited from earlier work"}, "human α4β2": {"molecular_target": "human α4β2", "conditions": "read-out: Ki human α4β2; expressed in Xenopus oocytes; ref Slater et al., 2003; cited from earlier work"}, "[4]": {"conditions": "dorsolateral geniculate nucleus"}, "[5]": {"conditions": "superior colliculus (optic nerve)"}, "[6]": {"conditions": "superior colliculus (sup. gray)"}}, "note": "Where two headings read alike, the source gives them in different places. Marks after values point to notes of the source that are not given here.", "data": [{"smiles": "O=c1c(I)ccc2n1C[C@@H]1CNC[C@H]2C1", "note": "[3-IC, 3-iodocytisine]", "values": [{"measurement": "[125I]α-bungarotoxin binding % change", "setting": "α7* nAChR binding sites", "value": 52.1, "unit": "%"}, {"measurement": "[125I]α-bungarotoxin binding % change", "setting": "α7* nAChR binding sites; listed as 3-iodocytisine", "value": "52.1 * %"}, {"measurement": "density of cytisine-resistant [125I]epibatidine binding sites vs saline", "setting": "[1]", "value": "No significant differences"}, {"measurement": "A85380 resistant component of [125I]epibatidine binding", "setting": "[2]", "value": "unmodified"}, {"measurement": "Cytisine-resistant [125I]epibatidine binding", "setting": "[3]; anterior olfactory nucleus", "value": "13.27 ± 2.48", "unit": "fmol/mg"}, {"measurement": "Cytisine-resistant [125I]epibatidine binding", "setting": "[3]; anteromedial thalamic nucleus", "value": "3.97 ± 0.25", "unit": "fmol/mg"}, {"measurement": "Cytisine-resistant [125I]epibatidine binding % change", "setting": "[3]; anteromedial thalamic nucleus", "value": 22.0, "unit": "%"}, {"measurement": "cytisine-resistant [125I]epibatidine sites after chronic treatment", "setting": "[3]; autoradiography, 0.2 mg/kg/h iv 7 days", "value": "not affected"}, {"measurement": "Cytisine-resistant [125I]epibatidine binding", "setting": "[3]; caudate putamen", "value": "2.39 ± 0.29", "unit": "fmol/mg"}, {"measurement": "Cytisine-resistant [125I]epibatidine binding % change", "setting": "[3]; caudate putamen", "value": 18.2, "unit": "%"}, {"measurement": "Cytisine-resistant [125I]epibatidine binding", "setting": "[3]; cingulate cortex", "value": "1.25 ± 0.13", "unit": "fmol/mg"}, {"measurement": "Cytisine-resistant [125I]epibatidine binding % change", "setting": "[3]; cingulate cortex", "value": 26.9, "unit": "%"}, {"measurement": "Cytisine-resistant [125I]epibatidine binding", "setting": "[3]; dentate gyrus (granular layer)", "value": "1.15 ± 0.06", "unit": "fmol/mg"}, {"measurement": "Cytisine-resistant [125I]epibatidine binding % change", "setting": "[3]; dentate gyrus (granular layer)", "value": 17.3, "unit": "%"}, {"measurement": "Cytisine-resistant [125I]epibatidine binding", "setting": "[3]; [4]", "value": "9.89 ± 0.66", "unit": "fmol/mg"}, {"measurement": "Cytisine-resistant [125I]epibatidine binding % change", "setting": "[3]; [4]", "value": -2.8, "unit": "%"}, {"measurement": "Cytisine-resistant [125I]epibatidine binding", "setting": "[3]; dorsomedial thalamic nucleus", "value": "3.78 ± 0.50", "unit": "fmol/mg"}, {"measurement": "Cytisine-resistant [125I]epibatidine binding % change", "setting": "[3]; dorsomedial thalamic nucleus", "value": 5.3, "unit": "%"}, {"measurement": "Cytisine-resistant [125I]epibatidine binding", "setting": "[3]; fasciculus retroflexus", "value": "63.47 ± 4.86", "unit": "fmol/mg"}, {"measurement": "Cytisine-resistant [125I]epibatidine binding % change", "setting": "[3]; fasciculus retroflexus", "value": 3.1, "unit": "%"}, {"measurement": "Cytisine-resistant [125I]epibatidine binding", "setting": "[3]; hippocampus (CA1-3)", "value": "0.98 ± 0.06", "unit": "fmol/mg"}, {"measurement": "Cytisine-resistant [125I]epibatidine binding % change", "setting": "[3]; hippocampus (CA1-3)", "value": 20.2, "unit": "%"}, {"measurement": "Cytisine-resistant [125I]epibatidine binding", "setting": "[3]; inferior colliculus (central)", "value": "4.00 ± 1.42", "unit": "fmol/mg"}, {"measurement": "Cytisine-resistant [125I]epibatidine binding % change", "setting": "[3]; inferior colliculus (central)", "value": 68.2, "unit": "%"}, {"measurement": "Cytisine-resistant [125I]epibatidine binding", "setting": "[3]; inferior colliculus (dorsal)", "value": "10.17 ± 2.62", "unit": "fmol/mg"}, {"measurement": "Cytisine-resistant [125I]epibatidine binding % change", "setting": "[3]; inferior colliculus (dorsal)", "value": 67.7, "unit": "%"}, {"measurement": "Cytisine-resistant [125I]epibatidine binding", "setting": "[3]; inferior colliculus (external)", "value": "2.55 ± 0.19", "unit": "fmol/mg"}, {"measurement": "Cytisine-resistant [125I]epibatidine binding % change", "setting": "[3]; inferior colliculus (external)", "value": 24.2, "unit": "%"}, {"measurement": "Cytisine-resistant [125I]epibatidine binding", "setting": "[3]; interpeduncular nucleus", "value": "211.95 ± 31.83", "unit": "fmol/mg"}, {"measurement": "Cytisine-resistant [125I]epibatidine binding", "setting": "[3]; medial geniculate nucleus", "value": "4.43 ± 0.80", "unit": "fmol/mg"}, {"measurement": "Cytisine-resistant [125I]epibatidine binding % change", "setting": "[3]; medial geniculate nucleus", "value": 38.1, "unit": "%"}, {"measurement": "Cytisine-resistant [125I]epibatidine binding", "setting": "[3]; medial habenula", "value": "282.84 ± 31.53", "unit": "fmol/mg"}, {"measurement": "Cytisine-resistant [125I]epibatidine binding % change", "setting": "[3]; medial habenula", "value": -13.5, "unit": "%"}, {"measurement": "Cytisine-resistant [125I]epibatidine binding", "setting": "[3]; nucleus accumbens", "value": "1.95 ± 0.21", "unit": "fmol/mg"}, {"measurement": "Cytisine-resistant [125I]epibatidine binding % change", "setting": "[3]; nucleus accumbens", "value": 12.9, "unit": "%"}, {"measurement": "Cytisine-resistant [125I]epibatidine binding", "setting": "[3]; olfactory tubercle", "value": "2.9 ± 0.5", "unit": "fmol/mg"}, {"measurement": "Cytisine-resistant [125I]epibatidine binding % change", "setting": "[3]; olfactory tubercle", "value": -17.1, "unit": "%"}, {"measurement": "Cytisine-resistant [125I]epibatidine binding", "setting": "[3]; optic tract", "value": "1.75 ± 0.22", "unit": "fmol/mg"}, {"measurement": "Cytisine-resistant [125I]epibatidine binding % change", "setting": "[3]; optic tract", "value": 26.1, "unit": "%"}, {"measurement": "Cytisine-resistant [125I]epibatidine binding", "setting": "[3]; parietal cortex (layers 1-3)", "value": "0.62 ± 0.06", "unit": "fmol/mg"}, {"measurement": "Cytisine-resistant [125I]epibatidine binding % change", "setting": "[3]; parietal cortex (layers 1-3)", "value": 24.6, "unit": "%"}, {"measurement": "Cytisine-resistant [125I]epibatidine binding", "setting": "[3]; parietal cortex (layers 4-6)", "value": "1.29 ± 0.07", "unit": "fmol/mg"}, {"measurement": "Cytisine-resistant [125I]epibatidine binding % change", "setting": "[3]; parietal cortex (layers 4-6)", "value": 45.9, "unit": "%"}, {"measurement": "Cytisine-resistant [125I]epibatidine binding", "setting": "[3]; retrosplenial Cortex", "value": "1.63 ± 0.11", "unit": "fmol/mg"}, {"measurement": "Cytisine-resistant [125I]epibatidine binding % change", "setting": "[3]; retrosplenial Cortex", "value": 35.8, "unit": "%"}, {"measurement": "Cytisine-resistant [125I]epibatidine binding", "setting": "[3]; subiculum", "value": "1.89 ± 0.10", "unit": "fmol/mg"}, {"measurement": "Cytisine-resistant [125I]epibatidine binding", "setting": "[3]; substantia nigra", "value": "1.6 ± 0.2", "unit": "fmol/mg"}, {"measurement": "Cytisine-resistant [125I]epibatidine binding % change", "setting": "[3]; substantia nigra", "value": 6.7, "unit": "%"}, {"measurement": "Cytisine-resistant [125I]epibatidine binding", "setting": "[3]; [5]", "value": "3.21 ± 0.14", "unit": "fmol/mg"}, {"measurement": "Cytisine-resistant [125I]epibatidine binding % change", "setting": "[3]; [5]", "value": 0.5, "unit": "%"}, {"measurement": "Cytisine-resistant [125I]epibatidine binding", "setting": "[3]; [6]", "value": "11.25 ± 0.12", "unit": "fmol/mg"}, {"measurement": "Cytisine-resistant [125I]epibatidine binding % change", "setting": "[3]; [6]", "value": 10.8, "unit": "%"}, {"measurement": "Cytisine-resistant [125I]epibatidine binding", "setting": "[3]; ventral tegmental area", "value": "3.4 ± 0.69", "unit": "fmol/mg"}, {"measurement": "Cytisine-resistant [125I]epibatidine binding % change", "setting": "[3]; ventral tegmental area", "value": 20.5, "unit": "%"}, {"measurement": "Cytisine-resistant [125I]epibatidine binding", "setting": "[3]; ventromedial thalamic nucleus", "value": "3.29 ± 0.46", "unit": "fmol/mg"}, {"measurement": "Cytisine-resistant [125I]epibatidine binding % change", "setting": "[3]; ventromedial thalamic nucleus", "value": 13.4, "unit": "%"}, {"measurement": "Cytisine-resistant [125I]epibatidine binding", "setting": "[3]; zona incerta", "value": "2.34 ± 0.22", "unit": "fmol/mg"}, {"measurement": "Ki", "setting": "α7* receptors", "value": 115, "unit": "nM"}, {"measurement": "Ki", "setting": "human α4β2", "value": 0.7, "unit": "nM"}]}]}
